The data set is described as follows: solubility of IPN in ammonia, meta-xylylenediamine and their mixtures. In kind it is physicochemical.

As for `N#Cc1cccc(C#N)c1` [IPN, 1,3-dicyanobenzene], the “solubility of IPN in the mixture” value is listed as “about 30 % by weight” (Example 1 mixture: 178 g/h circulation stream [13] and 94 g/h fresh ammonia, at 60° C.); “about 25 % by weight” (Example 2 mixture: 320 g/h circulation stream [13] and 40 g/h fresh ammonia, at 60° C.). Further, the “solubility of IPN” value is, setting by setting: (in MXDA, at 70° C.) “approx. 20 % by weight”; (in NH3, at 60° C.) “approx. 44 % by weight”; (in a mixture of approximately equal parts by mass of meta-xylylenediamine and liquid ammonia, at 60° C.) “approx. 30 % by weight”; (in meta-xylylenediamine, at 60° C.) “approx. 15 % by weight”.
